{"source": "paper PMC3904487", "about": "“The effect of piperine on midazolam plasma concentration in healthy volunteers, a research on the CYP3A-involving metabolism” (DARU Journal of Pharmaceutical Sciences, 2014)", "key": {"[1]": {"test": "Midazolam plasma concentration (HPLC) and one-compartment PK after placebo or piperine pretreatment in healthy volunteers", "text": "This was a cross-over controlled study on two groups (n=10) of healthy volunteers. A one-month period was considered as wash out time between two trials. […] Inclusion criteria: being healthy; age ranging 18 to 35; normal diet; not receiving microsomal enzyme inhibitor or inducer agents for at least 7 days before the study; not using black pepper for at least 7 days before the study. Exclusion criteria: age being below 18 and above 35; smocking; pregnancy; metabolic disorders; high pepper diet, receiving enzyme inhibitors or inducers.\nHealthy volunteers regardless of gender were randomly divided into two control and piperine receiving groups (n=20 per group). The subject received placebo or piperine (1 capsule 15 mg of piperine daily for 3 days before midazolam) and midazolam (10 mg as an oral single dose) on fourth day of the study. […] Blood samples (maximum 10 ml) were taken at 0.5, 2.5 and 5 hour after midazolam administration. After a month as a wash out period, the treatment program was exchanged between placebo and piperine groups and all steps were done as same as the previous.\nBlood samples were transferred into labeled tubes containing Ca-EDTA and shake gently to mix Ca-EDTA with blood for preventing of coagulation.The samples were centrifuged at 3500 ×g for 15 min and supernatant plasma layer transferred into a blank tube. Until the assay of midazolam or diazepam concentration, the plasma samples were kept at −20°C.\nFor measurement of the drugs concentration, plasma samples were removed from the freezer condition and left in the laboratory to convert from frozen into a liquid sample. Then 0.5 ml of thawed plasma sample was transferred into a capped falcon tube. In the next step, 100 micl of 1 M NaOH and 100 micl isoamyl alcohol were added. After a gently shaking, 4.5 ml of n-hexan was added and shake for 1 minute. The final solutions were centrifuged at 300 ×g for 5 min. After this step, 4.2 ml of supernatant was drawn and transferred into a plastic tube and 100 miclof 0.05 M HCl was added to the solution and centrifuged similar as the previous. Then the supernatant (organic layer) was discarded and the remaining was directly injected into the HPLC.\nThe separation was carried out at ambient temperature using a single-column isocratic reverse-phase method. The mobile phase consisted of 75% methanol and 25% water. Flow rate was set at 0.8 ml/min. The extracts were detected by UV detector at 242 nm wavelength. Twenty micl of the aqueous layer of final extract was injected into the HPLC using a Hamilton’s syringe. The injection was repeated 3 times for each sample. Peaks area and height were considered for midazolam and diazepam detection and used for calculation of the drugs concentration in the final plasma extract.\nThe second; pharmacokinetic (PK) parameters such as absorption rate constant (Ka), clearance, half-life and volume of distribution of midazolam in the placebo and piperine groups were calculated based on assumed one-compartment kinetics using P-Pharm software.\nBased on non-parametric distribution, data of three concentrations by time were analyzed using Friedman test. Wilcoxon U-test was used for the results of clearance, volume of distribution and half-life of midazolam in piperine group compared to placebo. The difference of the PK parameters between two groups was considered statistically significant at p<0.05."}, "[2]": {"test": "Clinical features (sedation, amnesia, side effects) after oral midazolam in placebo and piperine pretreatment groups", "type": "in vivo, human", "conditions": "midazolam 10 mg oral; for End of drug effect / duration of sedation / Onset of drug effect (sedative effect of midazolam): n=20, mean (±SD)"}, "[3]": {"conditions": "placebo pretreatment, midazolam 10 mg oral, n=20"}, "[4]": {"conditions": "piperine 15 mg x 3 days pretreatment"}, "[5]": {"conditions": "piperine 15 mg x 3 days pretreatment, of n=20"}}, "note": "Values joined by “and” are separate entries in the source; they are usually repeats but may differ in a detail not shown here. Equal entries are not always repeated.", "data": [{"compound": "Cc1ncc2n1-c1ccc(Cl)cc1C(c1ccccc1F)=NC2", "note": "[midazolam]", "values": [{"measurement": "AUC(0-t)", "setting": "[1]; both, human, plasma, po, 10 mg", "value": "411 ± 235", "unit": "ng·h/mL"}, {"measurement": "half-life", "setting": "[1]; both, human, plasma, po, 10 mg", "value": 1.71, "unit": "h"}, {"measurement": "Time of maximum plasma midazolam concentration", "setting": "[1]; placebo group, after midazolam 10 mg oral, population concentration-time curve", "value": 1.5, "unit": "h"}, {"measurement": "Kel, elimination rate constant of midazolam (Max)", "setting": "[1]; [3]", "value": 0.42}, {"measurement": "Kel, elimination rate constant of midazolam (Min)", "setting": "[1]; [3]", "value": 0.390}, {"measurement": "Kel, elimination rate constant of midazolam (mean)", "setting": "[1]; [3]", "value": 0.41}, {"measurement": "T1/2, half-life of midazolam (Max)", "setting": "[1]; [3]", "value": 1.78, "unit": "h"}, {"measurement": "T1/2, half-life of midazolam (Min)", "setting": "[1]; [3]", "value": 97.8, "unit": "min"}, {"measurement": "Volume (of distribution) of midazolam (Max)", "setting": "[1]; [3]", "value": 93.03}, {"measurement": "Volume (of distribution) of midazolam (Min)", "setting": "[1]; [3]", "value": 87.63}, {"measurement": "Volume (of distribution) of midazolam (mean)", "setting": "[1]; [3]", "value": 91.44}, {"measurement": "Subjects with severe sedation and dizziness", "setting": "[2]; placebo pretreatment", "value": 30, "unit": "%"}, {"measurement": "End of drug effect / duration of sedation", "setting": "[2]; placebo pretreatment", "value": "102±43 min and 102 (±43) min"}, {"measurement": "Onset of drug effect (sedative effect of midazolam)", "setting": "[2]; placebo pretreatment", "value": "11.25 (±4.5) min"}, {"measurement": "Amnesia (frequency, subjects)", "setting": "[2]; placebo pretreatment, of n=20", "value": 4}]}, {"compound": "O=C(/C=C/C=C/c1ccc2c(c1)OCO2)N1CCCCC1", "note": "[Piperine, piperine]", "values": [{"measurement": "Subjects with severe sedation and dizziness", "setting": "[2]; [4]", "value": 55, "unit": "%"}, {"measurement": "End of drug effect / duration of sedation", "setting": "[2]; [4]", "value": "188 (±59) min"}, {"measurement": "Onset of drug effect (sedative effect of midazolam)", "setting": "[2]; [4]", "value": "11.75 (±4.9) min"}, {"measurement": "End of drug effect / duration of sedation", "setting": "[2]; piperine 15 mg x 3 days pretreatment, listed as piperine", "value": "188 ± 59", "unit": "min"}, {"measurement": "Amnesia (frequency, subjects)", "setting": "[2]; [5]", "value": 7}, {"measurement": "Sedation (frequency, subjects)", "setting": "[2]; [5]", "value": 20}, {"measurement": "Amnesia (frequency, subjects)", "setting": "[2]; piperine 15 mg x 3 days pretreatment, of n=20, listed as piperine", "value": "Seven"}, {"measurement": "Subjects with hiccup when receiving midazolam", "setting": "[2]; piperine 15 mg x 3 days pretreatment, disappeared during first hours", "value": "One"}]}]}
